Consider 24 compounds from US20230250106A1, “COMPOUNDS AND COMPOSITIONS FOR TREATING CONDITIONS ASSOCIATED WITH STING ACTIVITY” (IFM Due, Inc., priority 2020, published 2023).

For the assay, the system named is STING pathway. The experiment in a line: STING reporter assay: luciferase reporter activity in THP1-Dual KO-IFNAR2 cells activated with 2'3'cGAMP. Format: cell-based. The note with it: Homo sapiens, 2'3'cGAMP 15 μM, 24 h, read-out: hSTING EC50. The method, boiled down: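 THP1-Dual KO-IFNAR2 cells were exposed to compounds at 0.0017-100 μM final and stimulated with 2′3′cGAMP (15 μM final) delivered with Lipofectamine 2000. After 24 h at 37 °C, secreted luciferase in the supernatant was read with QUANTI-Luc Plus, and EC50 values were calculated.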
(In general: In a reporter assay the amount or activity of a reporter protein is the signal.)

For orientation: EC50 means the concentration needed to bring the measured effect to its halfway point. For the compound `O=C(Nc1c[nH]c2cc(F)c(F)cc12)c1cnc(OCCC(F)(F)F)c(F)c1` [Compound 140, N-(5,6-difluoro-1H-indol-3-yl)-5-fluoro-6-(3,3,3-trifluoropropoxy)nicotinamide], the EC50 lay in the range of 200 to 1000 nM.

Take `N#Cc1cc(C(=O)Nc2c[nH]c3cc(F)c(F)cc23)ccc1N1CCC(F)(F)CC1` [Compound 188, 3-cyano-N-(5,6-difluoro-1H-indol-3-yl)-4-(4,4-difluoropiperidin-1-yl)benzamide]: the EC50 is 200 to 1000 nM. As for `O=C(Nc1c[nH]c2cc(F)c(F)cc12)c1ccc(N2CCC(F)(F)CC2)nc1` [Compound 159, N-(5,6-difluoro-1H-indol-3-yl)-6-(4,4-difluoropiperidin-1-yl)nicotinamide], the half-maximal effective concentration (EC50) lay in the range of 40 to 200 nM.

Take `CC(C)c1nc(-c2ccc(C(=O)Nc3c[nH]c4cc(F)c(F)cc34)cc2)no1` [Compound 267, N-(5,6-difluoro-1H-indol-3-yl)-4-(5-isopropyl-1,2,4-oxadiazol-3-yl)benzamide]: the concentration giving a half-maximal response (EC50) lay within 200 to 1000 nM. The value for `O=C(Nc1c[nH]c2cc(F)c(F)cc12)c1ccc(OC2CC(F)(F)C2)c(F)c1` [Compound 149, N-(5,6-difluoro-1H-indol-3-yl)-4-(3,3-difluorocyclobutoxy)-3-fluorobenzamide] was 200 to 1000 nM; that for `O=C(Nc1c[nH]c2cc(F)c(F)cc12)c1cccc(OC(F)(F)F)c1` [Compound 125, N-(5,6-difluoro-1H-indol-3-yl)-3-(trifluoromethoxy)benzamide] was 200 to 1000 nM. The value for `O=C(Nc1c[nH]c2cc(F)c(F)cc12)c1ccnc(NCCCC(F)(F)F)c1` [Compound 203, N-(5,6-difluoro-1H-indol-3-yl)-2-((4,4,4-trifluorobutyl)amino)isonicotinamide] was 200 to 1000 nM; that for `Cc1cc(N2CC(F)(F)C2)ncc1C(=O)Nc1c[nH]c2ccc(Cl)cc12` [Compound 272, N-(5-chloro-1H-indol-3-yl)-6-(3,3-difluoroazetidin-1-yl)-4-methylnicotinamide] was 200 to 1000 nM. The value for `COCCCNc1ncc(C(=O)Nc2c[nH]c3cc(F)c(F)cc23)cc1C` [Compound 103, N-(5,6-difluoro-1H-indol-3-yl)-6-((3-methoxypropyl)amino)-5-methylnicotinamide] was 5000 to 100000 nM; that for `O=C(Nc1c[nH]c2cc(F)c(F)cc12)c1ccc(CN2CC(F)C2)c(F)c1` [Compound 260, N-(5,6-difluoro-1H-indol-3-yl)-3-fluoro-4-((3-fluoroazetidin-1-yl)methyl)benzamide] was 200 to 1000 nM.

Regarding `O=C(Nc1c[nH]c2cc(F)c(F)cc12)c1ccnc(N2CC(F)(F)C2)c1Cl` [Compound 252, 3-chloro-N-(5,6-difluoro-1H-indol-3-yl)-2-(3,3-difluoroazetidin-1-yl)isonicotinamide], the concentration giving a half-maximal response (EC50) lay within 1000 to 5000 nM.

Regarding `O=C(Nc1c[nH]c2c(F)cncc12)c1ccc(OCCCC(F)(F)F)c(F)c1` [Compound 111, 3-fluoro-N-(7-fluoro-1H-pyrrolo[3,2-c]pyridin-3-yl)-4-(4,4,4-trifluorobutoxy)benzamide], the half-maximal effective concentration (EC50) fell in the range of 1000 to 5000 nM.

For the compound `O=C(Nc1c[nH]c2ccc(Cl)cc12)c1ccc(OCCCC(F)(F)F)c(F)c1` [Compound 153, N-(5-chloro-1H-indol-3-yl)-3-fluoro-4-(4,4,4-trifluorobutoxy)benzamide], the 50% effective concentration (EC50) lay within 200 to 1000 nM. Take `O=C(Nc1c[nH]c2cc(F)c(F)cc12)c1cnc(N2CC3(C2)CC(F)(F)C3)c(Cl)c1` [Compound 101, 5-chloro-N-(5,6-difluoro-1H-indol-3-yl)-6-(6,6-difluoro-2-azaspiro[3.3]heptan-2-yl)nicotinamide]: the EC50 lay within 200 to 1000 nM.

For `O=C(Nc1c[nH]c2cc(F)c(F)cc12)c1ccc(OC2COC2)cc1` [Compound 269, N-(5,6-difluoro-1H-indol-3-yl)-4-(oxetan-3-yloxy)benzamide], the EC50 is 1000 to 5000 nM. The value for `O=C(Nc1c[nH]c2cc(F)c(F)cc12)c1ccc(C(O)C2CC(F)(F)C2)cc1` (stereo not drawn) [Compound 233, N-(5,6-difluoro-1H-indol-3-yl)-4-((3,3-difluorocyclobutyl)(hydroxy)methyl)benzamide] was 200 to 1000 nM.

For `O=C(Nc1c[nH]c2cc(F)c(F)cc12)c1ccc(OCC2CC2)c(Cl)c1` [Compound 195, 3-chloro-4-(cyclopropylmethoxy)-N-(5,6-difluoro-1H-indol-3-yl)benzamide], the EC50 fell in the range of 200 to 1000 nM.

On to `O=C(Nc1c[nH]c2ccc(-c3cnn(-c4cccc(C5CC5)c4)c3)cc12)c1ccc(OCCCC(F)(F)F)cc1` [Compound 201, N-(5-(1-(3-cyclopropylphenyl)-1H-pyrazol-4-yl)-1H-indol-3-yl)-4-(4,4,4-trifluorobutoxy)benzamide], for which the concentration for a half-maximal effect (EC50) fell in the range of 200 to 1000 nM.

On to `O=C(Nc1c[nH]c2cc(F)c(F)cc12)c1cc(CCO)cc(C(F)(F)F)c1` [Compound 279, N-(5,6-difluoro-1H-indol-3-yl)-3-(2-hydroxyethyl)-5-(trifluoromethyl)benzamide], for which the concentration giving a half-maximal response (EC50) lay within 1000 to 5000 nM. The value for `O=C(Nc1c[nH]c2cc(F)c(F)cc12)c1cnc(N2CC(F)(F)C2)c(Cl)c1` [Compound 137, 5-chloro-N-(5,6-difluoro-1H-indol-3-yl)-6-(3,3-difluoroazetidin-1-yl)nicotinamide] was 200 to 1000 nM. The value for `O=C(Nc1c[nH]c2cc(F)c(F)cc12)c1cccc(C2(O)CCC(F)(F)CC2)c1` [Compound 251, 3-(4,4-difluoro-1-hydroxycyclohexyl)-N-(5,6-difluoro-1H-indol-3-yl)benzamide] was 1000 to 5000 nM; that for `O=C(Nc1c[nH]c2cc(F)c(F)cc12)c1ccc(OC2CCCCC2)cc1` [Compound 196, 4-(cyclohexyloxy)-N-(5,6-difluoro-1H-indol-3-yl)benzamide] was 200 to 1000 nM. The value for `CCCCOc1ccc(C(=O)Nc2c[nH]c3cc(F)c(F)cc23)cc1` [Compound 132, 4-butoxy-N-(5,6-difluoro-1H-indol-3-yl)benzamide] was 200 to 1000 nM. Take `COCCOc1ccc(C(=O)Nc2c[nH]c3cc(F)c(F)cc23)cn1` [Compound 157, N-(5,6-difluoro-1H-indol-3-yl)-6-(2-methoxyethoxy)nicotinamide]: the EC50 lay in the range of 200 to 1000 nM.
